Assay results published in patent publication US20130245598A1, “PHOTOACTIVE VITAMIN NANOPARTICLES FOR THE TREATMENT OF CHRONIC WOUNDS” (priority 2010, published 2013).
Converted amounts (≈) assume the structure as drawn.

Assays:
[1] = cited from earlier work
[2] = cited from the MSDS; cited from earlier work
E. coli = experiment: microbe, parasite or virus in culture; conditions: Escherichia coli, light or radiation study, read-out: LD50 E. coli Irradiated
DNA = DNA binding constant
Water solubility = format: physicochemical
plasmid DNA = experiment: Photocleavage of plasmid DNA (ethidium bromide stained agarose gel); format: biochemical; conditions: irradiation with visible light (λ>395 nm); 120 μM plasmid DNA; 25 and 50 μM riboflavin; 30 min incubation, 30 min irradiation
Description: From the left: Lane 1: DNA only, dark. Lane 2: DNA only, irradiated.

[3] = Singlet oxygen study using ADPA as singlet oxygen sensor; format: physicochemical; conditions: after 15 minutes of irradiation

Description for Human Skin: Toxicity of the formulations towards human skin cells is examined by previously published methods.

CC1=C(C/C=C(\C)CCC[C@H](C)CCC[C@H](C)CCCC(C)C)C(=O)c2ccccc2C1=O [Phylloquinone, phylloquinone]
water solubility [1]: does not dissolve in water | LD50 Human Skin Dark (Human Skin; dark): No Effect | LD50 Human Skin Irradiated (Human Skin; irradiated): 18,779 mg/Kg | LD50 Acute Oral Toxicity [2]: 25,000 mg/Kg

Cc1cc2nc3c(=O)[nH]c(=O)nc-3n(C[C@H](O)[C@H](O)[C@H](O)CO)c2cc1C [Riboflavin, 7,8-dimethyl-10-ribityl-isoalloxazine]
LD50 (E. coli): 85 mg/kg | DNA binding constant Kb (DNA): > 10^4 M^−1 | water solubility [1]: 100 µg/mL (≈ 266 µM) | concentration showing precipitation in water (Water solubility): 250 μm | Photocleavage of plasmid DNA from Form I (supercoiled) to Form II (nicked) (plasmid DNA): can cleave DNA | Production of singlet oxygen [3]: capable of producing a large quantity of singlet oxygen
